In patent publication US20080070980A1, “Use Of Beta-Cryptoxanthin” (priority 2004, published 2008):

How the values were obtained:
[1] = tested on: mouse myoblast cell line C2C12; test: protein formation in C2C12 muscle cell cultures (BCA protein assay, Pico-green DNA assay); assay type: cell-based
Protocol: β-Cyptoxanthin enhances protein formation in muscle cell cultures
C2C12 cells from American Type Culture Collection (ATCC, CRL-1772).
The mouse myoblast cell line C2C12 was seeded into 6 cm^2 cell culture dishes at a density 2×10^5 cells/per well. Cells were cultivated in the presence of Dulbecco's […] (DMEM) containing a final concentration of 10% fetal calf serum, 4500 mg/L glucose, 100 IU/ml Penicillin & 100 μg/ml Streptomycin 2 mM L-Glutamine and 1 mM sodium pyruvate. One day post seeding, cells were supplemented with fresh medium containing β-cryptoxanthin with a final concentration of 0.25 μM or 1 μM or vehicle (tetrahydrofurane). β-cryptoxanthin stock solution was prepared in tetrahydrofurane and the solvent concentration in the media was kept constant at 0.14% for all treatment conditions. Cultivation in medium containing β-cryptoxanthin followed up for a total of 7 consecutive days. The medium was changed every second day. On each day, cells from one well per treatment group were scraped into 0.4 ml of a lysis buffer consisting of 20 mM Tris pH 7.5, NaCl 150 mM, EDTA 1 mM, Nonidet 1%, proteinase inhibitors (Roche Molecular Systems, Mannheim Germany) and sonicated.
Aliquots of 10 μl of this solution were used for total protein, and 2 μl for total DNA analysis. After centrifugation for 5 min at 10000 g, supernatants were used for protein and DNA analysis in the soluble fraction.
Protein was determined using the BCA Protein Assay Reagent (Pierce, Rockford, USA). The Pico-green Assay (Molecular Probes, Leiden, The Netherlands) was used for analysis of DNA content.
The amount of protein was calculated as μg/well or in relation to the amount of cells present in the well, as indirectly determined by the amount of DNA/well.

[2] = tested on: genes involved in protein synthesis; test: six weeks feeding study in SKH-1 mice, gene expression by GeneChip DNA microarray in kidney, liver, skin and spleen; assay type: in vivo; conditions: 1200 ppm in feed with sodium cholate
Protocol: In a six weeks study, β-cryptoxanthin beadlets were mixed into the diet of SKH-1 mice to provide 1200 ppm β-cryptoxanthin in the feed. Further, 0.125 g of sodium cholate per 100 g of feed was added to facilitate the uptake of β-cryptoxanthin. The average β-cryptoxanthin intake was 6.5 mg pro mouse and pro day. After six weeks, the effect of this dose on the overall gene expression was studied. β-cryptoxanthin-mediated gene expression modifications were assessed by GeneChip® DNA microarray technology. Total RNA was extracted from kidney, liver, skin and spleen using the TRIzol® method according to the manufacturer protocol. Reverse Transcription was performed with 10 μg total RNA followed by second strand synthesis of cDNA. The cDNA was then transcribed into multiple cRNA copies and labelled by biotin-coupled nucleotides and fragmented. 10 μg of labelled and fragmented cRNA were hybridized on Affymetrix Mice Genome 430A microarrays as described in the GeneChip® Expression Analysis Technical Manual (Affymetrix, Oxford, UK). For each β-cryptoxanthin-treated tissue, five replicates were performed and compared to six replicates of untreated control mice. […] Subsequently, the microarrays were subjected to laser scanning and the hybridization signals were analyzed with Genedata Expressionist® and Phylosopher® software packages (Genedata, Basel, Switzerland). […]

[3] = 0.25 μM, 1 day in culture, C2C12
[4] = 0.25 μM, 2 days in culture, C2C12
[5] = 0.25 μM, 3 days in culture, C2C12
[6] = 0.25 μM, 4 days in culture, C2C12
[7] = 0.25 μM, 5 days in culture, C2C12
[8] = 0.25 μM, 6 days in culture, C2C12
[9] = 0.25 μM, 7 days in culture, C2C12

For `CC1=C(/C=C/C(C)=C/C=C/C(C)=C/C=C/C=C(C)/C=C/C=C(C)/C=C/C2=C(C)C[C@@H](O)CC2(C)C)C(C)(C)CCC1` [β-cryptoxanthin], the “soluble protein μg/well” value [1, 3] was 536 μg/well, the “total protein μg/well” value [1, 3] was 703.6 μg/well and the “μg soluble protein/μg DNA” value [1, 3] was 227 μg soluble protein/μg DNA. The “soluble protein μg/well” value [1, 4] was 592 μg/well, the “total protein μg/well” value [1, 4] was 753.6 μg/well and the “μg soluble protein/μg DNA” value [1, 4] was 244 μg soluble protein/μg DNA. The “soluble protein μg/well” value [1, 5] was 626 μg/well, the “total protein μg/well” value [1, 5] was 771.2 μg/well and the “μg soluble protein/μg DNA” value [1, 5] was 274 μg soluble protein/μg DNA. The “soluble protein μg/well” value [1, 6] was 915 μg/well, the “total protein μg/well” value [1, 6] was 1136 μg/well and the “μg soluble protein/μg DNA” value [1, 6] was 406 μg soluble protein/μg DNA. For the same compound, the “soluble protein μg/well” value [1, 7] was 1091 μg/well, the “total protein μg/well” value [1, 7] was 1314.4 μg/well and the “μg soluble protein/μg DNA” value [1, 7] was 505 μg soluble protein/μg DNA. The “soluble protein μg/well” value [1, 8] was 1267 μg/well, the “total protein μg/well” value [1, 8] was 1411.2 μg/well and the “μg soluble protein/μg DNA” value [1, 8] was 713 μg soluble protein/μg DNA. For the same compound, the “soluble protein μg/well” value [1, 9] was 1284 μg/well, the “total protein μg/well” value [1, 9] was 1257.2 μg/well and the “μg soluble protein/μg DNA” value [1, 9] was 693 μg soluble protein/μg DNA. The “change in soluble protein” value ([1]; 0.25 μM, C2C12 (Table 3)) was “an increase in soluble protein”, the “change in specific amount of protein/μg DNA” value ([1]; 0.25 μM, C2C12 (Table 4)) was “an increase in the specific amount of protein/μg DNA” and the “increase in total protein” value ([1]; 0.25 μM, C2C12, versus vehicle (Table 2)) was “approx. 1.4 fold”. For the same compound, the “soluble protein μg/well” value ([1]; 1 μM, 1 day in culture, C2C12) was 574 μg/well, the “total protein μg/well” value ([1]; 1 μM, 1 day in culture, C2C12) was 750 μg/well and the “μg soluble protein/μg DNA” value ([1]; 1 μM, 1 day in culture, C2C12) was 246 μg soluble protein/μg DNA. For the same compound, the “soluble protein μg/well” value ([1]; 1 μM, 2 days in culture, C2C12) was 547 μg/well, the “total protein μg/well” value ([1]; 1 μM, 2 days in culture, C2C12) was 757.2 μg/well and the “μg soluble protein/μg DNA” value ([1]; 1 μM, 2 days in culture, C2C12) was 231 μg soluble protein/μg DNA. For the same compound, the “soluble protein μg/well” value ([1]; 1 μM, 3 days in culture, C2C12) was 609 μg/well, the “total protein μg/well” value ([1]; 1 μM, 3 days in culture, C2C12) was 750 μg/well and the “μg soluble protein/μg DNA” value ([1]; 1 μM, 3 days in culture, C2C12) was 265 μg soluble protein/μg DNA. For the same compound, the “soluble protein μg/well” value ([1]; 1 μM, 4 days in culture, C2C12) was 857 μg/well, the “μg soluble protein/μg DNA” value ([1]; 1 μM, 4 days in culture, C2C12) was 382 μg soluble protein/μg DNA and the “soluble protein μg/well” value ([1]; 1 μM, 5 days in culture, C2C12) was 1126 μg/well. For the same compound, the “total protein μg/well” value ([1]; 1 μM, 5 days in culture, C2C12) was 1236 μg/well, the “μg soluble protein/μg DNA” value ([1]; 1 μM, 5 days in culture, C2C12) was 539 μg soluble protein/μg DNA and the “soluble protein μg/well” value ([1]; 1 μM, 6 days in culture, C2C12) was 1146 μg/well. For the same compound, the “total protein μg/well” value ([1]; 1 μM, 6 days in culture, C2C12) was 1232.4 μg/well, the “μg soluble protein/μg DNA” value ([1]; 1 μM, 6 days in culture, C2C12) was 624 μg soluble protein/μg DNA and the “soluble protein μg/well” value ([1]; 1 μM, 7 days in culture, C2C12) was 1118 μg/well. The “total protein μg/well” value ([1]; 1 μM, 7 days in culture, C2C12) was 1193.2 μg/well, the “μg soluble protein/μg DNA” value ([1]; 1 μM, 7 days in culture, C2C12) was 644 μg soluble protein/μg DNA and the “effect on protein formation at higher concentration” value ([1]; 1 μM, C2C12) was “plateaued”. The “expression of genes involved in protein synthesis in skin, liver, kidney and spleen” value [2] was “up-regulated”.
